hygroscopicity, APPEARANCE and MOISTURE data for three compounds are collected here from patent US6638948B1, “Amorphous paroxetine composition” (Pentech Pharmaceuticals, Inc., priority 1996, dated 2003).

The conditions of data set [1]: reported by Barnes et al. (U.S. Pat. No. 4,721,723); cited from earlier work.
Data set [2] can be described thus: Stability testing: specimen stored in a glass container with HDPE liner, opened and closed periodically, exposing it to atmospheric moisture; moisture and appearance noted. Format: physicochemical. The procedure: To a reaction flask containing 100 ml of absolute ethanol was added 13.9 g of paroxetine base. The flask was shaken until a clear solution was obtained. To this paroxetine solution, 10 ml of a solution of hydrochloric acid in absolute ethanol (22% v/v) was added dropwise. As the reaction proceeded to completion, the color of the solution changed from a yellow brown to a pink brown. The product was then vacuum dried in a rotary evaporator. A foamy, amorphous solid was obtained (lot # W951027). The produced amorphous solid was subjected to an additional 2.5 days of drying in a desiccator at reduced pressure. The solid, a free-flowing powder, was tested for composition by NMR and FTIR. The findings were consistent with published spectra for paroxetine. Silver nitrate testing of the solid indicated the presence of chloride in the sample. […] Residual moisture was determined by Karl-Fisher coulometric method at 0.7%. […] X-ray powder diffraction was performed using the powder pack method. The powder patterns were obtained using a Philips PW1710 automated diffractometer, with monochromatized CuKα, (Kα1=1.54060 Å; Kα2=1.54438 Å) radiation. The diffractometer was equipped with a compensating slit and a graphite monochromator. It was calibrated to 0.02° (2θ) using the quartz peak at 26.66θ° (2θ). The minimum peak/background ratio was 0.75. This spectrum is consistent with an amorphous solid form. The halo effect is clearly seen and the intensity is small. Differential scanning calorimetry was performed on the solid at two different heating rates.
A specimen (0.5 g) was stored in a glass container with a HDPE liner for stability testing. The container was opened and closed periodically exposing the specimen to atmospheric moisture. Moisture determination was conducted at intervals of about 3 months.
A solution of paroxetine hydrochloride in absolute ethanol (3.2 g/100 ml) was prepared as described in EXAMPLE 1. The solution was charged into a spray-drying machine (Yamato Chemical Co.) using a standard nozzle (0.1 mm orifice). The inlet temperature was set at 90 degrees Celsius and the outlet temperature at 60 degrees Celsius. The sample was spray dried to a fine, off-white powder (lot # W951026). Following recovery, the material was transferred to a vacuum desiccator and dried under partial vacuum for an additional 2.5 days. The resulting solid, a free-flowing powder, was tested for composition by NMR and FTIR. The findings were consistent with published spectra for paroxetine. Silver nitrate solution addition to an aqueous solution of the powder produced a white precipitate indicative of chloride. […] Residual moisture in the product was 0.8% measured by Karl-Fisher coulometric method. A sample was analyzed by HPLC and found to be free from related substances (purity>99%). This spectrum is consistent with an amorphous form. Differential scanning calorimetry was conducted on the solid.
For stability testing a specimen (9 g) was stored in a glass container with a HDPE liner. The container was opened and closed periodically exposing the specimen to atmospheric moisture. Moisture determination was conducted at intervals of about 3 months.

[3] abbreviates: 3 months storage, periodic exposure to atmospheric moisture.
[4] abbreviates: 6 months storage, periodic exposure to atmospheric moisture.
Setting [5] is: Initial, Karl-Fisher coulometric method.

`Cl.Fc1ccc([C@@H]2CCNC[C@H]2COc2ccc3c(c2)OCO3)cc1` [Amorphous paroxetine hydrochloride, (−)-trans4R-(4′-fluorophenyl)-3S-[(3′4′-methylenedioxy-phenoxy)methyl]-piperidine]: the hygroscopicity entry in data set [1] is listed as “undesirably hygroscopic”.

As to `Cl.Fc1ccc([C@@H]2CCNC[C@H]2COc2ccc3c(c2)OCO3)cc1` [lot #W951027, (−)-trans4R-(4′-fluorophenyl)-3S-[(3′4′-methylenedioxy-phenoxy)methyl]-piperidine], the APPEARANCE result in data set [2] (setting [3]), in data set [2] (setting [4]) and in data set [2] (Initial) was “Free-flowing” in each case. Further, the MOISTURE in data set [2] (setting [3]) came to 1.8% w/w; in data set [2] (setting [4]), 2.1% w/w; in data set [2] (setting [5]), 0.7% w/w.

As to `Cl.Fc1ccc([C@@H]2CCNC[C@H]2COc2ccc3c(c2)OCO3)cc1` [lot #W951026, (−)-trans4R-(4′-fluorophenyl)-3S-[(3′4′-methylenedioxy-phenoxy)methyl]-piperidine], the APPEARANCE result in data set [2] (setting [3]), in data set [2] (setting [4]) and in data set [2] (Initial) was “Free-flowing” each time. In addition, the MOISTURE in data set [2] (setting [3]) stood at 2.1% w/w; in data set [2] (setting [4]), 2.2% w/w; in data set [2] (setting [5]), 0.8% w/w.
